Experimental data taken from ChEMBL document CHEMBL1127134, “Synthesis and antibacterial activity of (1R,5R,6R)-2-tert-butyl-6-(1-hydroxyethyl)oxapenem-3-carboxylic acid” (1993).
≈ marks a conversion by molar mass, not a printed value.

What was measured:
Bacteroides fragilis [1] = assay: Minimum inhibitory concentration required for the antibacterial activity against Bacillus fragilis 4891/91 Kr; type: functional
Clostridium perfringens [2] = assay: Minimum inhibitory concentration required for the antibacterial activity against Clostridium perfringens DSM 756; type: functional
[3] = test system: Fusobacterium necrophorum; assay: Minimum inhibitory concentration required for the antibacterial activity against Sphaerophorus necrophorus Kr; type: functional
Clostridium perfringens [4] = assay: Minimum inhibitory concentration required for the antibacterial activity against Clostridium perfringens 1024027; type: functional
Bacteroides fragilis [5] = assay: Minimum inhibitory concentration required for the antibacterial activity against Bacillus fragilis 4661 Kr; type: functional
Bacteroides fragilis [6] = assay: Minimum inhibitory concentration required for the antibacterial activity against Bacillus fragilis L 1168 Italien; type: functional
Bacteroides ovatus = assay: Minimum inhibitory concentration required for the antibacterial activity against Bacillus ovatus Heidelberg; type: functional, bacillus ovatu
Bacteroides fragilis [7] = assay: Minimum inhibitory concentration required for the antibacterial activity against Bacillus fragilis Kr II; type: functional
Clostridium butyricum = assay: Minimum inhibitory concentration required for the antibacterial activity against Clostridium butyricum; type: functional
Bacteroides fragilis [8] = assay: Minimum inhibitory concentration required for the antibacterial activity against Bacillus fragilis Kr 1 TV; type: functional
[9] = test system: Parabacteroides distasonis; assay: Minimum inhibitory concentration required for the antibacterial activity against Bacillus distasonis Heidelberg; type: functional
Fusobacterium nucleatum = assay: Minimum inhibitory concentration required for the antibacterial activity against Fusobacterium nucleatum DSM 20482; type: functional
Bacteroides fragilis [10] = assay: Minimum inhibitory concentration required for the antibacterial activity against Bacillus fragilis 06688; type: functional
Clostridium perfringens [11] = assay: Minimum inhibitory concentration required for the antibacterial activity against Clostridium perfringens 24072; type: functional
Clostridium perfringens [12] = assay: Minimum inhibitory concentration required for the antibacterial activity against Clostridium perfringens 24071; type: functional
Clostridium sporogenes = assay: Minimum inhibitory concentration required for the antibacterial activity against Clostridium sporogenes; type: functional
[13] = test system: Peptostreptococcus anaerobius; assay: Minimum inhibitory concentration required for the antibacterial activity against Peptostrept. anaer. 222 I/82; type: functional
Phocaeicola vulgatus = assay: Minimum inhibitory concentration required for the antibacterial activity against Bacillus valgatus Kr III; type: functional
Bacteroides fragilis [14] = assay: Minimum inhibitory concentration required for the antibacterial activity against Bacillus fragilis 010848; type: functional
[15] = test system: Prevotella melaninogenica; assay: Minimum inhibitory concentration required for the antibacterial activity against Bacillus melaninogenicus Heidelberg; type: functional
[16] = test system: Parabacteroides distasonis; assay: Minimum inhibitory concentration required for the antibacterial activity against Bacillus distasonis Kr; type: functional
Bacteroides fragilis [17] = assay: Minimum inhibitory concentration required for the antibacterial activity against Bacillus fragilis 2034/35 Kr 43; type: functional
Anaerococcus prevotii = assay: Minimum inhibitory concentration required for the antibacterial activity against Peptococcus prevotii DSM 20548; type: functional
[18] = test system: Bacteroides thetaiotaomicron; assay: Minimum inhibitory concentration required for the antibacterial activity against Bacillus thetaiotaomicron DSM 2079; type: functional
[19] = test system: Peptoniphilus asaccharolyticus; assay: Minimum inhibitory concentration required for the antibacterial activity against Peptococcus asacchar. DSM 20463; type: functional
[20] = test system: Peptostreptococcus anaerobius; assay: Minimum inhibitory concentration required for the antibacterial activity against Peptostrept. anaer. Kr I; type: functional
Bacteroides fragilis [21] = assay: Minimum inhibitory concentration required for the antibacterial activity against Bacillus fragilis GA I - 0558 Japan; type: functional
Bacteroides fragilis [22] = assay: Minimum inhibitory concentration required for the antibacterial activity against Bacillus fragilis 1560 I/82; type: functional
[23] = test system: Prevotella melaninogenica; assay: Minimum inhibitory concentration required for the antibacterial activity against Bacillus melaninogenicus Kr; type: functional
[24] = test system: Peptostreptococcus anaerobius; assay: Minimum inhibitory concentration required for the antibacterial activity against Peptostrept. anaer. DSM 20357; type: functional
Bacteroides fragilis [25] = assay: Minimum inhibitory concentration required for the antibacterial activity against Bacillus fragilis DSM 2151; type: functional
Clostridium septicum = assay: Minimum inhibitory concentration required for the antibacterial activity against Clostridium septicum; type: functional
Bacteroides fragilis [26] = assay: Minimum inhibitory concentration required for the antibacterial activity against Bacillus fragilis ES 25; type: functional
[27] = test system: Peptostreptococcus anaerobius; assay: Minimum inhibitory concentration required for the antibacterial activity against Peptostrept. anaer. Kr II; type: functional
[28] = test system: Bacteroides thetaiotaomicron; assay: Minimum inhibitory concentration required for the antibacterial activity against Bacillus thetaiotaomicron 235 Munchen; type: functional
Thomasclavelia ramosa = assay: Minimum inhibitory concentration required for the antibacterial activity against Clostridium ramosum DSM 1402; type: functional
Staphylococcus aureus [29] = assay: Minimum inhibitory concentration required for the antibacterial activity against Staphylococcus aureus 21b Belgium; type: functional
Staphylococcus aureus [30] = assay: Minimum inhibitory concentration required for the antibacterial activity against Staphylococcus aureus 25085; type: functional
Staphylococcus aureus [31] = assay: Minimum inhibitory concentration required for the antibacterial activity against Staphylococcus aureus 25768; type: functional
Staphylococcus aureus [32] = assay: Minimum inhibitory concentration required for the antibacterial activity against Staphylococcus aureus 90 Innsbruck; type: functional
Staphylococcus aureus [33] = assay: Minimum inhibitory concentration required for the antibacterial activity against Staphylococcus aureus 77 Innsbruck; type: functional
Staphylococcus aureus [34] = assay: Minimum inhibitory concentration required for the antibacterial activity against Staphylococcus aureus 25470; type: functional
Staphylococcus aureus [35] = assay: Minimum inhibitory concentration required for the antibacterial activity against Staphylococcus aureus 48N Munchen; type: functional
Staphylococcus aureus [36] = assay: Minimum inhibitory concentration required for the antibacterial activity against Staphylococcus aureus 1756; type: functional; settings: Staphylococcus aureus; read-out: MIC
Staphylococcus aureus [37] = assay: Minimum inhibitory concentration required for the antibacterial activity against Staphylococcus aureus 17N Munchen; type: functional
Staphylococcus aureus [38] = assay: Minimum inhibitory concentration required for the antibacterial activity against Staphylococcus aureus 79B Innsbruck; type: functional
Staphylococcus aureus [39] = assay: Minimum inhibitory concentration required for the antibacterial activity against Staphylococcus aureus 4978 Israel; type: functional
Staphylococcus aureus [40] = assay: Minimum inhibitory concentration required for the antibacterial activity against Staphylococcus aureus 25464; type: functional
Staphylococcus aureus [41] = assay: Minimum inhibitory concentration required for the antibacterial activity against Staphylococcus aureus 25463; type: functional
Staphylococcus aureus [42] = assay: Minimum inhibitory concentration required for the antibacterial activity against Staphylococcus aureus 25697; type: functional
Staphylococcus aureus [43] = assay: Minimum inhibitory concentration required for the antibacterial activity against Staphylococcus aureus 13N Munchen; type: functional
Staphylococcus aureus [44] = assay: Minimum inhibitory concentration required for the antibacterial activity against Staphylococcus aureus 41h Belgium; type: functional
Staphylococcus aureus [45] = assay: Minimum inhibitory concentration required for the antibacterial activity against Staphylococcus aureus 86 Innsbruck; type: functional

CCn1cc(C(=O)O)c(=O)c2cc(F)c(N3CCNCC3)cc21 [NORFLOXACIN]
MIC (Bacteroides fragilis [1]): > 16 µg/mL
MIC (Clostridium perfringens [2]): > 16 µg/mL
MIC [3]: 2 µg/mL (≈ 6.26 µM)
MIC (Clostridium perfringens [4]): 2 µg/mL (≈ 6.26 µM)
MIC (Bacteroides fragilis [5]): > 16 µg/mL
MIC (Bacteroides fragilis [6]): > 16 µg/mL
MIC (Bacteroides ovatus): > 16 µg/mL
MIC (Bacteroides fragilis [7]): > 16 µg/mL
MIC (Clostridium butyricum): 16 µg/mL (≈ 50.1 µM)
MIC (Bacteroides fragilis [8]): > 16 µg/mL
MIC [9]: > 16 µg/mL
MIC (Fusobacterium nucleatum): 16 µg/mL (≈ 50.1 µM)
MIC (Bacteroides fragilis [10]): > 16 µg/mL
MIC (Clostridium perfringens [11]): 4 µg/mL (≈ 12.5 µM)
MIC (Clostridium perfringens [12]): 4 µg/mL (≈ 12.5 µM)
MIC (Clostridium sporogenes): 16 µg/mL (≈ 50.1 µM)
MIC [13]: > 16 µg/mL
MIC (Phocaeicola vulgatus): > 16 µg/mL
MIC (Bacteroides fragilis [14]): > 16 µg/mL
MIC [15]: > 16 µg/mL
MIC [16]: > 16 µg/mL
MIC (Bacteroides fragilis [17]): > 16 µg/mL
MIC (Anaerococcus prevotii): > 16 µg/mL
MIC [18]: > 16 µg/mL
MIC [19]: 4 µg/mL (≈ 12.5 µM)
MIC [20]: > 16 µg/mL
MIC (Bacteroides fragilis [21]): > 16 µg/mL
MIC (Bacteroides fragilis [22]): > 16 µg/mL
MIC [23]: 16 µg/mL (≈ 50.1 µM)
MIC [24]: > 16 µg/mL
MIC (Bacteroides fragilis [25]): > 16 µg/mL
MIC (Clostridium septicum): 16 µg/mL (≈ 50.1 µM)
MIC (Bacteroides fragilis [26]): > 16 µg/mL
MIC [27]: 2 µg/mL (≈ 6.26 µM)
MIC [28]: > 16 µg/mL
MIC (Thomasclavelia ramosa): > 16 µg/mL

CO/N=C(\C(=O)N[C@@H]1C(=O)N2C(C(=O)O)=C(COC(C)=O)CS[C@H]12)c1csc(N)n1 [CEFOTAXIME]
MIC (Bacteroides fragilis [1]): 4 µg/mL (≈ 8.78 µM)
MIC (Clostridium perfringens [2]): ≤ 0.25 µg/mL
MIC [3]: 1 µg/mL (≈ 2.2 µM)
MIC (Clostridium perfringens [4]): ≤ 0.25 µg/mL
MIC (Bacteroides fragilis [5]): 4 µg/mL (≈ 8.78 µM)
MIC (Bacteroides fragilis [6]): 4 µg/mL (≈ 8.78 µM)
MIC (Bacteroides fragilis [7]): 2 µg/mL (≈ 4.39 µM)
MIC (Clostridium butyricum): 1 µg/mL (≈ 2.2 µM)
MIC (Bacteroides fragilis [8]): 1 µg/mL (≈ 2.2 µM)
MIC [9]: 2 µg/mL (≈ 4.39 µM)
MIC (Fusobacterium nucleatum): 0.5 µg/mL (≈ 1.1 µM)
MIC (Bacteroides fragilis [10]): 2 µg/mL (≈ 4.39 µM)
MIC (Clostridium perfringens [11]): 0.5 µg/mL (≈ 1.1 µM)
MIC (Clostridium perfringens [12]): 2 µg/mL (≈ 4.39 µM)
MIC (Clostridium sporogenes): 0.5 µg/mL (≈ 1.1 µM)
MIC [13]: 0.5 µg/mL (≈ 1.1 µM)
MIC (Phocaeicola vulgatus): 2 µg/mL (≈ 4.39 µM)
MIC (Bacteroides fragilis [14]): 16 µg/mL (≈ 35.1 µM)
MIC [15]: 2 µg/mL (≈ 4.39 µM)
MIC [16]: 2 µg/mL (≈ 4.39 µM)
MIC (Bacteroides fragilis [17]): > 128 µg/mL
MIC (Anaerococcus prevotii): 8 µg/mL (≈ 17.6 µM)
MIC [18]: 128 µg/mL (≈ 281 µM)
MIC [19]: ≤ 0.25 µg/mL
MIC [20]: 32 µg/mL (≈ 70.3 µM)
MIC (Bacteroides fragilis [21]): 8 µg/mL (≈ 17.6 µM)
MIC (Bacteroides fragilis [22]): 2 µg/mL (≈ 4.39 µM)
MIC [23]: 2 µg/mL (≈ 4.39 µM)
MIC [24]: 16 µg/mL (≈ 35.1 µM)
MIC (Bacteroides fragilis [25]): 4 µg/mL (≈ 8.78 µM)
MIC (Clostridium septicum): 128 µg/mL (≈ 281 µM)
MIC (Bacteroides fragilis [26]): 4 µg/mL (≈ 8.78 µM)
MIC [27]: ≤ 0.25 µg/mL
MIC [28]: 128 µg/mL (≈ 281 µM)
MIC (Thomasclavelia ramosa): 2 µg/mL (≈ 4.39 µM)

CC1(C)S[C@@H]2[C@H](NC(=O)[C@H](N)c3ccccc3)C(=O)N2[C@H]1C(=O)O [AMPICILLIN]
MIC (Staphylococcus aureus [29]): > 100 µg/mL
MIC (Staphylococcus aureus [30]): 50 µg/mL (≈ 143 µM)
MIC (Staphylococcus aureus [31]): 50 µg/mL (≈ 143 µM)
MIC (Staphylococcus aureus [32]): 50 µg/mL (≈ 143 µM)
MIC (Staphylococcus aureus [33]): 50 µg/mL (≈ 143 µM)
MIC (Staphylococcus aureus [34]): 50 µg/mL (≈ 143 µM)
MIC (Staphylococcus aureus [35]): 50 µg/mL (≈ 143 µM)
MIC (Staphylococcus aureus [36]): 50 µg/mL (≈ 143 µM)
MIC (Staphylococcus aureus [37]): 25 µg/mL (≈ 71.5 µM)
MIC (Staphylococcus aureus [38]): 50 µg/mL (≈ 143 µM)
MIC (Staphylococcus aureus [39]): 1.56 µg/mL (≈ 4.46 µM)
MIC (Staphylococcus aureus [40]): 50 µg/mL (≈ 143 µM)
MIC (Staphylococcus aureus [41]): 50 µg/mL (≈ 143 µM)
MIC (Staphylococcus aureus [42]): 25 µg/mL (≈ 71.5 µM)
MIC (Staphylococcus aureus [43]): 50 µg/mL (≈ 143 µM)
MIC (Staphylococcus aureus [44]): 50 µg/mL (≈ 143 µM)
MIC (Staphylococcus aureus [45]): 50 µg/mL (≈ 143 µM)

CC1(C)S[C@@H]2[C@H](NC(=O)[C@H](NC(=O)N3CCN(S(C)(=O)=O)C3=O)c3ccccc3)C(=O)N2[C@H]1C(=O)O [MEZLOCILLIN]
MIC (Staphylococcus aureus [29]): 50 µg/mL (≈ 92.7 µM)
MIC (Staphylococcus aureus [30]): 50 µg/mL (≈ 92.7 µM)
MIC (Staphylococcus aureus [31]): 25 µg/mL (≈ 46.3 µM)
MIC (Staphylococcus aureus [32]): > 100 µg/mL
MIC (Staphylococcus aureus [33]): 100 µg/mL (≈ 185 µM)
MIC (Staphylococcus aureus [34]): 25 µg/mL (≈ 46.3 µM)
MIC (Staphylococcus aureus [35]): 12.5 µg/mL (≈ 23.2 µM)
MIC (Staphylococcus aureus [36]): 50 µg/mL (≈ 92.7 µM)
MIC (Staphylococcus aureus [37]): 12.5 µg/mL (≈ 23.2 µM)
MIC (Staphylococcus aureus [38]): 50 µg/mL (≈ 92.7 µM)
MIC (Staphylococcus aureus [39]): 3.12 µg/mL (≈ 5.78 µM)
MIC (Staphylococcus aureus [40]): 100 µg/mL (≈ 185 µM)
MIC (Staphylococcus aureus [41]): 12.5 µg/mL (≈ 23.2 µM)
MIC (Staphylococcus aureus [42]): 25 µg/mL (≈ 46.3 µM)
MIC (Staphylococcus aureus [43]): 50 µg/mL (≈ 92.7 µM)
MIC (Staphylococcus aureus [44]): 3.12 µg/mL (≈ 5.78 µM)
MIC (Staphylococcus aureus [45]): 50 µg/mL (≈ 92.7 µM)
